{"source": "patent US10624875B2", "about": "“Methods and compositions for treating schizophrenia” (The Johns Hopkins University, priority 2012, dated 2020)", "key": {"[1]": {"test_system": "aged-impaired (AI) rats", "assay": "eight-arm Radial Arm Maze (RAM) task with one-hour delay, spatial memory retention", "assay_type": "in vivo, rat", "experimental": "The effects of levetiracetam on the spatial memory retention of aged-impaired (AI) rats were assessed in a Radial Arm Maze (RAM) behavioral task using vehicle control and five different dosage levels of levetiracetam (1.25 mg/kg/day, 2.5 mg/kg/day, 5 mg/kg/day, 10 mg/kg/day and 20 mg/kg/day). RAM behavioral tasks were preformed on ten AI rats. All six treatment conditions were tested on all ten rats, as described above for the MWM test. The RAM apparatus used consisted of eight equidistantly-spaced arms. An elevated maze arm (7 cm width×75 cm length) projected from each facet of an octagonal center platform (30 cm diameter, 51.5 cm height). Clear side walls on the arms were 10 cm high and were angled at 65° to form a trough. A food well (4 cm diameter, 2 cm deep) was located at the distal end of each arm. Froot Loops™ (Kellogg Company) were used as rewards. Blocks constructed of Plexiglas™ (30 cm height×12 cm width) could be positioned to prevent entry to any arm. Numerous extra maze cues surrounding the apparatus were also provided. The AI rats were initially subjected to a pre-training test (Chappell et al. Neuropharmacology 37: 481-487, 1998). The pre-training test consisted of a habituation phase (4 days), a training phase on the standard win-shift task (18 days) and another training phase (14 days) in which a brief delay was imposed between presentation of a subset of arms designated by the experimenter (e.g., 5 arms available and 3 arms blocked) and completion of the eight-arm win-shift task (i.e., with all eight arms available). In the habituation phase, rats were familiarized to the maze for an 8-minute session on four consecutive days. In each of these sessions food rewards were scattered on the RAM, initially on the center platform and arms and then progressively confined to the arms. After this habituation phase, a standard training protocol was used, in which a food pellet was located at the end of each arm. Rats received one trial each day for 18 days. Each daily trial terminated when all eight food pellets had been obtained or when either 16 choices were made or 15 minutes had elapsed. After completion of this training phase, a second training phase was carried out in which the memory demand was increased by imposing a brief delay during the trial. At the beginning of each trial, three arms of the eight-arm maze were blocked. Rats were allowed to obtain food on the five arms to which access was permitted during this initial ‘information phase’ of the trial. Rats were then removed from the maze for 60 seconds, during which time the barriers on the maze were removed, thus allowing access to all eight arms. Rats were then placed back onto the center platform and allowed to obtain the remaining food rewards during this ‘retention test’ phase of the trial. The identity and configuration of the blocked arms varied across trials. The number of “errors” the AI rats made during the retention test phase was tracked. An error occurred in the trial if the rats entered an arm from which food had already been retrieved in the pre-delay component of the trial, or if it re-visited an arm in the post-delay session that had already been visited. After completion of the pre-training test, rats were subjected to trials with more extended delay intervals, i.e., a one-hour delay, between the information phase (presentation with some blocked arms) and the retention test (presentation of all arms). […]"}, "[2]": {"test_system": "Age-Impaired (AI) Long-Evans rats", "assay": "Morris Water Maze (MWM) retention trial, spatial memory", "assay_type": "in vivo, rat", "conditions": "retention trial 24 hours after two training days", "experimental": "The MWM apparatus consists of a large, circular pool (diameter 1.83 m; height, 0.58 m) filled with water (27° C.) that is made opaque through the addition of non-toxic pigment or some other substance. In the typical “hidden platform” version of the test, rats are trained to find a camouflaged white escape platform (height, 34.5 cm) that is positioned in the center of one quadrant of the maze about 1.0 cm below the water surface. This platform can be retracted to the bottom of the tank or raised to its normal position from outside the maze during behavioral testing. The location of the platform remains constant from trial to trial. Because there are no local cues that mark the position of the platform, the rat's ability to locate it efficiently from any starting position at the perimeter of the pool depends on using information surrounding the maze. The maze is surrounded by black curtains to which white patterns are affixed to provide a configuration of spatial cues. A second platform (height 37.5 cm), with its surface painted black is elevated 2 cm above the water surface during cue training to control for factors unrelated to cognition. The behavior of a rat in the pool is recorded by a camera that is suspended 2.5 m above the center of the pool. […] At the completion of the protocol using the hidden platform, rats are assessed for cue learning using the visible platform. […]"}, "[3]": {"conditions": "drug on its own (levetiracetam i.p., valproate subcutaneous)"}}, "note": "Several values for one entry are separate records, joined by “and”; a condition that tells them apart may be missing. Identical values can stand only once.", "data": [{"smiles": "CC[C@@H](C(N)=O)N1CCCC1=O", "note": "[levetiracetam, (2S)-2-(2-oxopyrrolidin-1-yl) butanamide]", "values": [{"measurement": "performance in the radial maze task", "setting": "[1]; 20 mg/kg", "result": "fails to improve the performance"}, {"measurement": "dose effective in reducing the number of errors", "setting": "[1]; [3]", "result": "5 to 10", "unit": "mg/kg"}, {"measurement": "dose not effective in reducing the number of errors", "setting": "[1]; [3]", "result": "1.25 mg/kg and 2.5 mg/kg"}, {"measurement": "time spent in the target quadrant versus vehicle-treated controls", "setting": "[2]; 5 mg/kg/day i.p.", "result": "did not significantly improve"}, {"measurement": "time spent in the target annulus", "setting": "[2]; 10 mg/kg/day i.p.", "result": "effectiveness of the 10 mg/kg/day levetiracetam treatment was also seen"}]}]}
